Assay results published in patent US8772480B2, “Inhibitors of PI3 kinase and/or mTOR” (priority 2009, dated 2014).

Legend:
[1] = target: ProfilerPro Kinase Selectivity Assay Kit kinases (Homo sapiens, UniProt O14757); type: biochemical; settings: CHK1; 1 μM compound concentration
Procedure: (§1) Compounds were profiled using a LabChip® EZ Reader II platform and a ProfilerPro Kinase Selectivity Assay Kit (Caliper Lifesciences Inc., Hopkinton, Mass.). Compounds were tested at a concentration of 1 M in duplicate, with mean data reported as percent of control (POC).

[2] = target: ProfilerPro Kinase Selectivity Assay Kit kinases (Homo sapiens, UniProt O75116); type: biochemical; settings: ROCK2; 1 μM compound concentration
Procedure: as §1

[3] = target: ProfilerPro Kinase Selectivity Assay Kit kinases (Homo sapiens, UniProt O95819); type: biochemical; settings: HGK; 1 μM compound concentration
Chain of ProfilerPro Kinase Selectivity Assay Kit kinases (Homo sapiens, UniProt O95819) (O95819 2-1239 limits assumed): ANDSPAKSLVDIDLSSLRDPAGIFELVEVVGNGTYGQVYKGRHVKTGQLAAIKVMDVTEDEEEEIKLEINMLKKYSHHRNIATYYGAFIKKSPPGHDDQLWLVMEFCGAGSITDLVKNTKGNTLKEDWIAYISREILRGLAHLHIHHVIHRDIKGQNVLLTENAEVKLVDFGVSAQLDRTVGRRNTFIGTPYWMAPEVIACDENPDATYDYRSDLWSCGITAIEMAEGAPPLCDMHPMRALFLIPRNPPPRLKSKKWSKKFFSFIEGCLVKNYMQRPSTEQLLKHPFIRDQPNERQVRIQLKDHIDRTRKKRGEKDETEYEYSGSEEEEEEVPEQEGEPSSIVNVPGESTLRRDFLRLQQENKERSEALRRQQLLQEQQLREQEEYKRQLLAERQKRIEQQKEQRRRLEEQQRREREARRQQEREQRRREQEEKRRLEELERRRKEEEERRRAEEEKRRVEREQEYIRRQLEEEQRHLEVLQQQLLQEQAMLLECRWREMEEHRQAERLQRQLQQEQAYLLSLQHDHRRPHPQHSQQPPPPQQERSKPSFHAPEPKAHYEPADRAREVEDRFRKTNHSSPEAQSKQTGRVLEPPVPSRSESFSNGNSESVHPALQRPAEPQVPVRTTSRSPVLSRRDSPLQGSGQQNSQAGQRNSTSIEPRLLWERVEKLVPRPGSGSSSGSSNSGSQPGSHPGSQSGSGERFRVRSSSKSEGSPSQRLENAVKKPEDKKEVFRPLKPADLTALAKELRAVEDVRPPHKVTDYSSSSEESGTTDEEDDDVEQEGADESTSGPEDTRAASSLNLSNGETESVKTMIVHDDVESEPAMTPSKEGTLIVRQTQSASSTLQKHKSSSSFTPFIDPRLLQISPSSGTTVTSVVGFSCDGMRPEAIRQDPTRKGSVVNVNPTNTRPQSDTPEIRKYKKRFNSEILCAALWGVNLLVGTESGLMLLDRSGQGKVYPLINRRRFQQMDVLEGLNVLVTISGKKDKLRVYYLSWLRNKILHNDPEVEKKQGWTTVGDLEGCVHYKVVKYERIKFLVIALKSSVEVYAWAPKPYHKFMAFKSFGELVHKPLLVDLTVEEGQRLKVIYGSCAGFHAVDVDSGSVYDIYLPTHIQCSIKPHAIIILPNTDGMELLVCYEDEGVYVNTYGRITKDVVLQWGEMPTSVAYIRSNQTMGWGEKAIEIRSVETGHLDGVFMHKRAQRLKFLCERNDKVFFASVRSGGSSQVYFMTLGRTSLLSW
Procedure: as §1

[4] = target: ProfilerPro Kinase Selectivity Assay Kit kinases (Homo sapiens, UniProt P06213); type: biochemical; settings: INSR; 1 μM compound concentration
Procedure: as §1

[5] = target: ProfilerPro Kinase Selectivity Assay Kit kinases (Homo sapiens, UniProt P17612); type: biochemical; settings: PKA alpha; 1 μM compound concentration
Procedure: as §1

[6] = target: ProfilerPro Kinase Selectivity Assay Kit kinases (Homo sapiens, UniProt P31751); type: biochemical; settings: AKT2; 1 μM compound concentration
Procedure: as §1

[7] = target: ProfilerPro Kinase Selectivity Assay Kit kinases (Homo sapiens, UniProt P48730); type: biochemical; settings: CK1 delta; 1 μM compound concentration
Procedure: as §1

[8] = target: ProfilerPro Kinase Selectivity Assay Kit kinases (Homo sapiens, UniProt P49137); type: biochemical; settings: MAPKAPK2; 1 μM compound concentration
Procedure: as §1

[9] = target: ProfilerPro Kinase Selectivity Assay Kit kinases (Homo sapiens, UniProt Q06187); type: biochemical; settings: BTK; 1 μM compound concentration
Chain of ProfilerPro Kinase Selectivity Assay Kit kinases (Homo sapiens, UniProt Q06187) (Q06187 2-659 limits assumed): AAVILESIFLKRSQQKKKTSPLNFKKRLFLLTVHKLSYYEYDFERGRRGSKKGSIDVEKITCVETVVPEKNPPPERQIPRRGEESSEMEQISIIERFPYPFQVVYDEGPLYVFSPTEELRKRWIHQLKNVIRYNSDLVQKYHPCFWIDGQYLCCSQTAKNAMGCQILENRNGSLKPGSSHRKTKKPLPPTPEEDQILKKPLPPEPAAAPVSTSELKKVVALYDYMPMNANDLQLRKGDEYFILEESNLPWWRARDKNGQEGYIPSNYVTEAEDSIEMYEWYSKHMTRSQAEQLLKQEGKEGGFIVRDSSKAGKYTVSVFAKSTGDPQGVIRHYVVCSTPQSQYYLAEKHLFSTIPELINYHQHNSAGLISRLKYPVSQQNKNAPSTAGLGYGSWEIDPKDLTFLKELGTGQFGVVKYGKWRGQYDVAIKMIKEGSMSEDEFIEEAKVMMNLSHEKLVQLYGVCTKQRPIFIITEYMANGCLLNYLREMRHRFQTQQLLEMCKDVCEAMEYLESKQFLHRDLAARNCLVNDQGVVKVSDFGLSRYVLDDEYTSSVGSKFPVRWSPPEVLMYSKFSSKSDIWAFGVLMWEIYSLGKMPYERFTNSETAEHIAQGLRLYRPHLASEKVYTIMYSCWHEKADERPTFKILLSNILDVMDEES
Procedure: as §1

[10] = target: ProfilerPro Kinase Selectivity Assay Kit kinases (Homo sapiens, UniProt Q13177); type: biochemical; settings: PAK2; 1 μM compound concentration
Chain of ProfilerPro Kinase Selectivity Assay Kit kinases (Homo sapiens, UniProt Q13177) (Q13177 2-524 limits assumed): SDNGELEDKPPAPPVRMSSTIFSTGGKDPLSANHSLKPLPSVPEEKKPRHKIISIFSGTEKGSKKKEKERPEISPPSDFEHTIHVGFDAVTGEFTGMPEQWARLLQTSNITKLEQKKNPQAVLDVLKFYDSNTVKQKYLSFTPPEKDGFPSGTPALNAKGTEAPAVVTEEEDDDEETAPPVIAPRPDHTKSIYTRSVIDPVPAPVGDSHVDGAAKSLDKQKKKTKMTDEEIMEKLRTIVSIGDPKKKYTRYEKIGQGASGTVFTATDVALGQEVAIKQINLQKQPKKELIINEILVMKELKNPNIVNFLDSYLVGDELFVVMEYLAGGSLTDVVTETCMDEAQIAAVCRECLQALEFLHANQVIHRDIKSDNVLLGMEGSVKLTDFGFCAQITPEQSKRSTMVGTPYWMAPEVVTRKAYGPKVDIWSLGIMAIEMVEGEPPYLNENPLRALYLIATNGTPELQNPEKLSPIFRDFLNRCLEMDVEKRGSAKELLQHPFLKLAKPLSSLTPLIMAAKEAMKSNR
Procedure: as §1

[11] = target: ProfilerPro Kinase Selectivity Assay Kit kinases (Homo sapiens, UniProt Q8IW41); type: biochemical; settings: PRAK; 1 μM compound concentration
Procedure: as §1

[12] = target: ProfilerPro Kinase Selectivity Assay Kit kinases (Homo sapiens, UniProt Q9P0L2); type: biochemical; settings: MARK1; 1 μM compound concentration
Procedure: as §1

[13] = target: ProfilerPro Kinase Selectivity Assay Kit kinases (Homo sapiens, UniProt Q9P1W9); type: biochemical; settings: PIM2; 1 μM compound concentration
Procedure: as §1

[14] = target: PI3Kα (Homo sapiens (Human), UniProt P42336); settings: read-out: PI3Kα AlphaScreen ® Ki
Chain of PI3Kα (P42336 whole entry): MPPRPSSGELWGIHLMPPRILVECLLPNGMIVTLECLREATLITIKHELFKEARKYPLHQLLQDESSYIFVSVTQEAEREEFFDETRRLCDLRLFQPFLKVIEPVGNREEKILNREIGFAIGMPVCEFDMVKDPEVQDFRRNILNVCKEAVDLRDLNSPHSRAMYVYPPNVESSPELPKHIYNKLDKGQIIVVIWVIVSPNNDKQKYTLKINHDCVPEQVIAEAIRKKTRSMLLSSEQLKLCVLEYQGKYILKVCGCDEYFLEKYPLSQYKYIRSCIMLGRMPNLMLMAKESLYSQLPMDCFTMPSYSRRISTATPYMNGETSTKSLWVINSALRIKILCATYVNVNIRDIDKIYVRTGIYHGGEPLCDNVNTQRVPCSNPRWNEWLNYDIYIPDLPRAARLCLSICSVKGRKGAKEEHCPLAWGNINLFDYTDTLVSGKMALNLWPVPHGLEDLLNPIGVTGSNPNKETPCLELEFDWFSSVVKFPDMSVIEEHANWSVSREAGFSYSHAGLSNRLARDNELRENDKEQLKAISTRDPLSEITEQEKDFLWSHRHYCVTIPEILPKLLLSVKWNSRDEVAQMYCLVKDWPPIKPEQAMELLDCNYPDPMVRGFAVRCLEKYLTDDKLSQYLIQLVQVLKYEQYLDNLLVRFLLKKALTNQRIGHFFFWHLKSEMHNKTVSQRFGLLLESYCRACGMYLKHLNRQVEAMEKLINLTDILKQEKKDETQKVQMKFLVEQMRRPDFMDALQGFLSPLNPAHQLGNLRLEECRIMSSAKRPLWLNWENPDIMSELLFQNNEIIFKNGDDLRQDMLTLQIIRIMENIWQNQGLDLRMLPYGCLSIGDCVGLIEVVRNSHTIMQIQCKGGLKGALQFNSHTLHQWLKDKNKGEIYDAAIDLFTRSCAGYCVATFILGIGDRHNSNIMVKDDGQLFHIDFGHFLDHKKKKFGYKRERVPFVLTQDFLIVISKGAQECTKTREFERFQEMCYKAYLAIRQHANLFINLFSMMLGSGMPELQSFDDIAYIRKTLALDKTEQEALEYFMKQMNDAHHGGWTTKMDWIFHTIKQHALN
Chain of PI3Kα (P27986 whole entry partner): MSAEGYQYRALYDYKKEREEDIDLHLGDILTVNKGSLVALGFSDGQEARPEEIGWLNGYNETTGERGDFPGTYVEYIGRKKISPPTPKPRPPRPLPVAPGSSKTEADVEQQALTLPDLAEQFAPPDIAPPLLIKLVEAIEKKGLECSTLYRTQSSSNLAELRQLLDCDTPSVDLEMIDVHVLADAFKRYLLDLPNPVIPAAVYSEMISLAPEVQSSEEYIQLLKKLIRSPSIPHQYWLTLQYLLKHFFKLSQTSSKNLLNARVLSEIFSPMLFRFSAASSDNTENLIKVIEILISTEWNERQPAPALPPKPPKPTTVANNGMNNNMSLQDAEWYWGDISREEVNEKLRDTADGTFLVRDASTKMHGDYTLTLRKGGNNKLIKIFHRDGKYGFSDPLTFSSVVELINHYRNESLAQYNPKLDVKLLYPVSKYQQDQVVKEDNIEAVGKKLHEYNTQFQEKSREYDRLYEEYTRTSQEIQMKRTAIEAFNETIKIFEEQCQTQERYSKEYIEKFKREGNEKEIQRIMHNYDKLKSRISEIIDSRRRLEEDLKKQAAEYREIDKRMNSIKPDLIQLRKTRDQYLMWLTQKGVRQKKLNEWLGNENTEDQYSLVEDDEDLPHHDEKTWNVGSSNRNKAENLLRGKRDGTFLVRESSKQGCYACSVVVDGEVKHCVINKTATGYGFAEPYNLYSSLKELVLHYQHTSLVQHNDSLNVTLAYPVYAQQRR

[15] = target: human mutant B-raf (HuBraf V600E) (Homo sapiens (Human), UniProt P15056, V600E); settings: at 10 μM compound concentration; POC = 100 − percent inhibition
Chain of human mutant B-raf (HuBraf V600E) (P15056 whole entry V600E): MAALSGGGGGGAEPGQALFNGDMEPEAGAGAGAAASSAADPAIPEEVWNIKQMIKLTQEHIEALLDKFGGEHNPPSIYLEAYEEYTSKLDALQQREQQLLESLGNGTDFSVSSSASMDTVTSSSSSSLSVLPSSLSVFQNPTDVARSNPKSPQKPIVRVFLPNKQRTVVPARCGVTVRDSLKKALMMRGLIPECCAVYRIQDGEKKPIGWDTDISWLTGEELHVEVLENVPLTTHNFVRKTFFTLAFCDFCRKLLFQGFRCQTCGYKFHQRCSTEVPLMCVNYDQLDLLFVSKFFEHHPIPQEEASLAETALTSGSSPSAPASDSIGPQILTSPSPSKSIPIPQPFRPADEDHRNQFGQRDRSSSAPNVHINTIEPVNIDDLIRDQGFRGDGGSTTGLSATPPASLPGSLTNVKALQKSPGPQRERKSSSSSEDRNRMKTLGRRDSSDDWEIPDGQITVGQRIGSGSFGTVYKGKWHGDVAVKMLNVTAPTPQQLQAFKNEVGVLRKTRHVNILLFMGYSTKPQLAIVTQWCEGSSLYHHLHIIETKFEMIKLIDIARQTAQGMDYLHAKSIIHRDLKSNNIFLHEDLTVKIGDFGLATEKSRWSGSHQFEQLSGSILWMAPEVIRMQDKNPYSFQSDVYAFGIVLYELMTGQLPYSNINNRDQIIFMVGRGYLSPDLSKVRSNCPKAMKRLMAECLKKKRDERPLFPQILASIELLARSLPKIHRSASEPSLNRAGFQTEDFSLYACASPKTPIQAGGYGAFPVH
Procedure: B-Raf Homogenous Time Resolved Fluorescence (HTRF) Kinase Assay
The final concentration of the kinase reaction buffer is 50 mM Tris-HCl pH 7.5, 10 mM MgCl2, 0.5% glucose, 0.5 mM DTT, 0.01% BSA. […] The detection reaction proceeds for one hour and is read on a RubyStar (BMG Labtech, Durham, N.C.) counter. IC50s for the test compounds are generated using Excel-XLfit software. For single concentration percent of control (POC;=100−percent inhibition) assays, compounds were assayed as above at a single test concentration of 10 M test compound.

[16] = system: phosphorylation of Akt at Serine 473 in U87 MG cells; experiment: cells; settings: Homo sapiens, U-87 MG, 2 h, read-out: U87Cell IC50, pAkt (Ser 473), U87 MG cells, two hours with compound

| SMILES | POC (Percent of control) CHK1 [1] [POC] | POC (Percent of control) ROCK2 [2] [POC] | POC (Percent of control) HGK [3] [POC] | POC (Percent of control) INSR [4] [POC] | POC (Percent of control) PKA alpha [5] [POC] | POC (Percent of control) AKT2 [6] [POC] | POC (Percent of control) CK1 delta [7] [POC] | POC (Percent of control) MAPKAPK2 [8] [POC] | POC (Percent of control) BTK [9] [POC] | POC (Percent of control) PAK2 [10] [POC] | POC (Percent of control) PRAK [11] [POC] | POC (Percent of control) MARK1 [12] [POC] | POC (Percent of control) PIM2 [13] [POC] | Ki [14] [µM] | Mutant B-raf HTRF Assay POC Mean n = 2 [15] | IC50 [16] [µM] |
| --- | --- | --- | --- | --- | --- | --- | --- | --- | --- | --- | --- | --- | --- | --- | --- | --- |
| Cc1cnc(Nc2cccc3[nH]ncc23)c(-c2nc(C)nc(N)n2)c1 [Example 47, N-(3-(4-Amino-6-Methyl-1,3,5-Triazin-2-yl)-5-Methylpyridine-2-yl)-1H-Indazol-4-Amine] | 92 | 93 | 91 | 99 | 16 | 74 | 69 | 101 | 93 | 99 | 103 | 107 | 104 | 0.036 | 91% of Control (POC) | 0.197 |
| COc1ccc(Nc2ncccc2-c2nc(C)nc3[nH]cnc23)cn1 [Example 58, N-(6-methoxypyridin-3-yl)-3-(2-methyl-9H-purin-6-yl)pyridin-2-amine] | 101 | 100 | 104 | 104 | 96 | 96 | 104 | 96 | 102 | 102 | 84 | 146 | 94 | – | 97% of Control (POC) | – |
| Cc1nc(N)cc(-c2cccnc2Nc2cccc3[nH]ncc23)n1 [Example 27, N-(3-(6-Amino-2-Methylpyrimidin-4-yl)Pyridin-2-yl)-1H-Indazol-4-Amine] | 103 | 95 | 91 | 71 | 84 | 95 | 43 | 101 | 99 | 99 | 98 | 102 | 106 | 0.13 | 110% of Control (POC) | – |
| COc1ccc(Nc2ncc(Cc3ccc(S(C)(=O)=O)cc3)cc2-c2nc(C)nc3[nH]cnc23)cn1 [Example 103, N-(6-methoxypyridin-3-yl)-3-(2-methyl-9H-purin-6-yl)-5-(4-(methylsulfonyl)benzyl)pyridin-2-amine] | 107 | 106 | 85 | 95 | 99 | 89 | 120 | 100 | 97 | 98 | 103 | 131 | 96 | 0.002 | – | 0.028 |
| Cc1nc(-c2cccnc2Nc2cccc3[nH]ncc23)c2nc[nH]c2n1 [Example 57, N-(3-(2-methyl-9H-purin-6-yl)pyridin-2-yl)-1H-indazol-4-amine] | 106 | 95 | 93 | 94 | 100 | 98 | 55 | 99 | 98 | 95 | 100 | 99 | 94 | – | 87% of Control (POC) | – |
| Cc1nc(N)nc(-c2cccnc2Nc2cccc3[nH]ccc23)n1 [Example 22, N-(3-(4-Amino-6-Methyl-1,3,5-Triazin-2-yl)Pyridin-2-yl)-1H-Indol-4-Amine] | 103 | 94 | 97 | 96 | 97 | 97 | 91 | 98 | 99 | 99 | 106 | 109 | 97 | – | 118% of Control (POC) | – |
| COc1ccc(Nc2ncccc2-c2ncnc3[nH]cnc23)cn1 [Example 20, N-(6-Methoxypyridin-3-yl)-3-(9H-Purin-6-yl)Pyridin-2-Amine] | 104 | 101 | 94 | 97 | 97 | 92 | 93 | 100 | 98 | 103 | 99 | 108 | 105 | – | 72% of Control (POC) | – |
| Cc1nc(N)nc(-c2cccnc2Nc2cccc(O)c2)n1 [Example 23, 3-(3-(4-Amino-6-Methyl-1,3,5-Triazin-2-yl)Pyridin-2-Ylamino)Phenol] | 105 | 101 | 99 | 98 | 99 | 112 | 70 | 99 | 100 | 96 | 97 | 97 | 99 | – | 100% of Control (POC) | – |
| c1cnc(Nc2cccc3[nH]ncc23)c(-c2ncnc3[nH]cnc23)c1 [Example 18, N-(3-(9H-Purin-6-yl)Pyridin-2-yl)-1H-Indazol-4-Amine] | 97 | 98 | 92 | 90 | 97 | 93 | 35 | 93 | 99 | 96 | 95 | 112 | 101 | 22.6 | 3% of Control (POC) | – |
